Literature values, collected in US20050020601A1, “Novel pyrazinones as CRF1 receptor antagonists” (Pfizer Inc, priority 2003, published 2005).

Key:
[1] = system: cultured human epidermal keratinocyte cells
rats = settings: for effect on the "anxiogenic" effects/actions of CRF: conflict test

Row | SMILES | keratinocyte cell proliferation [1] | effect on the "anxiogenic" effects/actions of CRF (rats) | behavioral activity alone (rats; operant conflict test, compound alone)
1 | CCN(c1nc(C)cc(N2CC=C(c3cccc(F)c3)CC2)n1)c1ccc(C(C)C)cc1SC [2-[N-(2-methylthio-4-isopropylphenyl)-N-ethylamino]-4-[4-(3-fluorophenyl)-1,2,3,6-tetrahydropyridine-1-yl]-6-methylpyrimidine] | keratinocyte cell proliferation promoting effect |  | 
2 | CNC(=O)c1cc2c(cn1)[nH]c1ccccc12 [FG 7142] |  | enhanced the actions of CRF | 
3 | CCOC(=O)c1ncn2c1CN(C)C(=O)c1cc(F)ccc1-2 [Ro 15-1788] |  | reversed the effects of CRF in a dose-dependent manner | without behavioral activity alone
